Marks after values point to notes of the source that are not given here.
Key:
[1] = Glucose tolerance assessment in normal C57BL/6 mice (Example 4); format: in vivo; conditions: 3 nmol/kg s.c. single dose, 24 h after administration
Protocol: (§1) Twelve hours after the single administration, the animals were fasted for 12 hours and had free access to water. Blood was collected from the tail vein to determine the basal blood glucose level of each group of animals, and then 2 g/kg glucose solution was injected intraperitoneally. Blood glucose was tested at 15, 30, 60, and 90 min after glucose administration. The blood glucose concentration-time curve was drawn according to the blood glucose values measured at different time points, and the AUC0~90min of each dose group was calculated as shown in Table 4 and Figure 1. Table 4: Effects of single administration of HEC-PT74, HEC-PT75, HEC-PT77, HEC-PT78, HEC-PT80, and HEC-PT82 on glucose tolerance in normal C57 mice 24 h after administration

[2] = Glucose tolerance assessment in normal C57BL/6 mice (Example 5); format: in vivo; conditions: 3 nmol/kg s.c. single dose, 24 h after administration
Protocol: as §1, with “Table 5” for “Table 4”, “Figure 2.” for “Figure 1.”, “Table 5:” for “Table 4:”, “of HEC-PT86, HEC-PT96, HEC-PT112, HEC-PT113, HEC-PT114,” for “of HEC-PT74, HEC-PT75, HEC-PT77, HEC-PT78, HEC-PT80,”, “and HEC-PT119” for “and HEC-PT82”

[3] = In vivo efficacy evaluation in db/db mouse model (blood glucose); parameters: species or system db/db mice; conditions: db/db mice
Protocol: Blood glucose was tested before each administration.

[4] = Long-term repeated administration in diet-induced obese C57BL/6 mice (DIO); format: in vivo, C57/BL6 mice
Source text: Experimental methods: C57/BL6 mice were randomly divided into a normal group (NFD) and a model group (HFD) at the fifth week of age. The normal group was fed with ordinary maintenance feed, while the other groups were fed with high-fat feed D12492. The body weight and food intake of mice were monitored every 3 weeks. After 16 weeks of feeding, the body weights of mice in the model group and the normal group were (49.0±2.3) g and (31.0±2.0) g, respectively, and the difference between the two groups was statistically significant. […] Body weight and food intake were measured before each administration. After 3 weeks of administration, an intraperitoneal glucose tolerance test was performed. The mice were slaughtered and samples were collected 72 h after the last administration. The liver weight was recorded, and the liver pathological conditions and blood biochemical indexes of each group were tested.

[5] = 15 min after 2 g/kg glucose i.p.
[6] = 30 min after 2 g/kg glucose i.p.
[7] = 60 min after 2 g/kg glucose i.p.
[8] = 90 min after 2 g/kg glucose i.p.
[9] = basal before 2 g/kg glucose i.p.
[10] = blood glucose AUC, 2 g/kg glucose i.p.
[11] = 10 nmol/kg s.c. once every 3 days, D7
[12] = 10 nmol/kg s.c. once every 3 days, D10
[13] = 10 nmol/kg s.c. once every 3 days, D13
[14] = 10 nmol/kg s.c. once every 3 days, D16
[15] = 10 nmol/kg s.c. once every 3 days, D19
[16] = 10 nmol/kg s.c. once every 3 days, D22
[17] = 10 nmol/kg s.c. once every 3 days, D25
[18] = 10 nmol/kg s.c. once every 3 days, D28
[19] = long-term administration 10 nmol/kg, 72 h after the last administration
[20] = long-term administration 10 nmol/kg, blood biochemical index

Compound: CC[C@H](C)[C@H](NC(=O)[C@H](CC(C)C)NC(=O)[C@H](Cc1c[nH]c2ccccc12)NC(=O)[C@H](CCC(N)=O)NC(=O)[C@@H](NC(=O)[C@H](Cc1ccccc1)NC(=O)[C@H](C)NC(=O)[C@H](CCCCNC(=O)COCCOCCNC(=O)COCCOCCNC(=O)CC[C@H](NC(=O)CCCCCCCCCCCCCCCCCCC(=O)O)C(=O)O)NC(=O)[C@H](CCC(N)=O)NC(=O)[C@H](C)NC(=O)[C@@H](NC(=O)[C@H](CCCCN)NC(=O)[C@H](CC(=O)O)NC(=O)[C@H](CC(C)C)NC(=O)C(C)(C)NC(=O)[C@@H](NC(=O)[C@H](CO)NC(=O)[C@H](Cc1ccc(O)cc1)NC(=O)[C@H](CC(=O)O)NC(=O)[C@H](CO)NC(=O)[C@@H](NC(=O)[C@H](Cc1ccccc1)NC(=O)[C@@H](NC(=O)CNC(=O)[C@H](CCC(=O)O)NC(=O)C(C)(C)NC(=O)[C@@H](N)Cc1ccc(O)cc1)[C@@H](C)O)[C@@H](C)O)[C@@H](C)CC)[C@@H](C)CC)C(C)C)C(=O)N[C@@H](C)C(=O)NCC(=O)NCC(=O)N1CCC[C@H]1C(=O)N[C@@H](CO)C(=O)N[C@@H](CO)C(=O)NCC(=O)N[C@@H](C)C(=O)N1CCC[C@H]1C(=O)N1CCC[C@H]1C(=O)N1CCC[C@H]1C(=O)N[C@@H](CO)C(N)=O [LY3298176, tirzepatide, reference compound]
- Blood glucose level (mM) 15 min [1, 5]: 12.6 ± 3.5 mM
- Blood glucose level (mM) 30 min [1, 6]: 9.5 ± 3.3 mM
- Blood glucose level (mM) 60 min [1, 7]: 7.9 ± 1.4 mM
- Blood glucose level (mM) 90 min [1, 8]: 6.5 ± 1.3 mM
- Blood glucose level (mM) 0 min [1, 9]: 4.0 ± 0.8 mM
- AUC0-90 min [1, 10]: 768.2±171.6^a
- Blood glucose level (mM) 15 min [2, 5]: 13.6 ± 3.1 mM
- Blood glucose level (mM) 30 min [2, 6]: 9.9 ± 3.2 mM
- Blood glucose level (mM) 60 min [2, 7]: 6.9 ± 0.9 mM
- Blood glucose level (mM) 90 min [2, 8]: 7.2 ± 0.9 mM
- Blood glucose level (mM) 0 min [2, 9]: 4.9 ± 1.0 mM
- AUC0-90 min [2, 10]: 776.9±125.6^a
- Random blood glucose (mM) D0 ([3]; 10 nmol/kg s.c. once every three days, D0 (before first dose)): 26.1 ± 3.8 mM
- Random blood glucose (mM) D3 ([3]; 10 nmol/kg s.c. once every three days, D3): 22.4 ± 3.7 mM
- Random blood glucose (mM) D4 ([3]; 10 nmol/kg s.c. once every three days, D4): 22.1 ± 4.0 mM
- Random blood glucose (mM) D5 ([3]; 10 nmol/kg s.c. once every three days, D5): 24.2 ± 3.9 mM
- Random blood glucose (mM) D6 ([3]; 10 nmol/kg s.c. once every three days, D6): 25.3 ± 4.0 mM
- Random blood glucose (mM) D7 ([3]; 10 nmol/kg s.c. once every three days, D7): 23.5 ± 2.6 mM
- Random blood glucose (mM) D10 ([3]; 10 nmol/kg s.c. once every three days, D10): 18.5 ± 5.1 mM
- Random blood glucose (mM) D13 ([3]; 10 nmol/kg s.c. once every three days, D13): 20.1 ± 5.8 mM
- Random blood glucose (mM) D16 ([3]; 10 nmol/kg s.c. once every three days, D16): 18.6 ± 4.0 mM
- Random blood glucose (mM) D19 ([3]; 10 nmol/kg s.c. once every three days, D19): 18.7 ± 3.8 mM
- Random blood glucose (mM) D22 ([3]; 10 nmol/kg s.c. once every three days, D22): 16.2 ± 4.6 mM
- Random blood glucose (mM) D25 ([3]; 10 nmol/kg s.c. once every three days, D25): 16.6±3.7^a mM
- Random blood glucose (mM) 6 h ([3]; 10 nmol/kg s.c., 6 h): 16.8 ± 5.0 mM
- Random blood glucose (mM) 24 h ([3]; 10 nmol/kg s.c., 24 h): 13.0 ± 6.7 mM
- Random blood glucose (mM) 48 h ([3]; 10 nmol/kg s.c., 48 h): 19.9 ± 5.6 mM
- Cumulative food intake (g/pcs) D7 [4, 11]: 10.2 g/pcs
- Weight gain rate (%) D7 [4, 11]: -15.4±2.9%
- Cumulative food intake (g/pcs) D10 [4, 12]: 13.0 g/pcs
- Weight gain rate (%) D10 [4, 12]: -19.6±3.2%
- Cumulative food intake (g/each) D13 [4, 13]: 16.6 g/each
- Weight gain rate (%) D13 [4, 13]: -24.3±6.4%
- Cumulative food intake (g/each) D16 [4, 14]: 22.1 g/each
- Weight gain rate (%) D16 [4, 14]: -23.4±5.1%
- Cumulative food intake (g/each) D19 [4, 15]: 27.9 g/each
- Weight gain rate (%) D19 [4, 15]: -26.0±7.3%
- Cumulative food intake (g/each) D22 [4, 16]: 34.2 g/each
- Weight gain rate (%) D22 [4, 16]: -26.7±7.7%
- Cumulative food intake (g/each) D25 [4, 17]: 40.6 g/each
- Weight gain rate (%) D25 [4, 17]: -27.7±7.0%
- Cumulative food intake (g/each) D28 [4, 18]: 48.1 g/each
- Weight gain rate (%) D28 [4, 18]: -28.2±7.3%
- Cumulative food intake (g/each) D30 ([4]; 10 nmol/kg s.c. once every 3 days, D30): 51.9^a g/each
- Weight gain rate (%) D31 ([4]; 10 nmol/kg s.c. once every 3 days, D31): -28.0±6.8^a %
- Cumulative food intake (g/pcs) D0 ([4]; 10 nmol/kg s.c., D0): 2.7 g/pcs
- Weight gain rate (%) D0 ([4]; 10 nmol/kg s.c., D0): 0.0±0.0%
- Cumulative food intake (g/pcs) D1 ([4]; 10 nmol/kg s.c., D1): 3.0 g/pcs
- Weight gain rate (%) D1 ([4]; 10 nmol/kg s.c., D1): -6.4±0.9%
- Cumulative food intake (g/pcs) D2 ([4]; 10 nmol/kg s.c., D2): 3.8 g/pcs
- Weight gain rate (%) D2 ([4]; 10 nmol/kg s.c., D2): -8.9±1.3%
- Cumulative food intake (g/pcs) D3 ([4]; 10 nmol/kg s.c., D3): 5.1 g/pcs
- Weight gain rate (%) D3 ([4]; 10 nmol/kg s.c., D3): -8.7±1.9%
- Cumulative food intake (g/pcs) D4 ([4]; 10 nmol/kg s.c., D4): 7.4 g/pcs
- Weight gain rate (%) D4 ([4]; 10 nmol/kg s.c., D4): -7.7±2.1%
- Liver/g [4, 19]: 1.0±0.1^a g
- Weight/g [4, 19]: 32.6±3.9^a g
- ALT (U/L) [4, 20]: 30.9±3.1^a U/L
- AST (U/L) [4, 20]: 110.3±17.6^a U/L
- CHOL (mmol/L) [4, 20]: 3.3±0.5^a mmol/L
- TRIGL (mmol/L) [4, 20]: 0.6±0.1^a mmol/L
